Test results taken from US20240189311A1, “Combination Therapy of Obicetrapib and Ezetimibe for Use in Statin Intolerant Patients Suffering from Hyperlipidemia or Mixed Dyslipidaemia” (NEWAMSTERDAM PHARMA B.V., priority 2021, published 2024).

Key:
CETP = molecular target: T1, CETP (Homo sapiens, UniProt P11597); settings: 5 mg obicetrapib dose; healthy subjects and patients; multiple dose; cited from earlier work
T1 construct: from tissue; host or cells: plasma of the dosed clinical-study subjects (endogenous CETP)
T1 sequence (P11597 18-493): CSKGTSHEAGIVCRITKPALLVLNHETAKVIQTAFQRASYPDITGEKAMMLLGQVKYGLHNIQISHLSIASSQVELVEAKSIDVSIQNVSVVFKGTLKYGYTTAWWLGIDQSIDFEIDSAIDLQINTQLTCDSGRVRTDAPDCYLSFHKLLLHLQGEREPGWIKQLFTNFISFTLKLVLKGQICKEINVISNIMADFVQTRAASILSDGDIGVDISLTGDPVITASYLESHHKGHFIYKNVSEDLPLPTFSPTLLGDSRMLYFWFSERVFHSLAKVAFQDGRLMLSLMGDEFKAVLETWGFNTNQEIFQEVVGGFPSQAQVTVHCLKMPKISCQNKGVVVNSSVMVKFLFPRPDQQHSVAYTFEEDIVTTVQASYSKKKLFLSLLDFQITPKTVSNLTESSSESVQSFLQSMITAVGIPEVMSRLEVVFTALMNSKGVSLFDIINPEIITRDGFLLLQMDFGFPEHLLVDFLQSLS

[1] = Phase 2 study: pharmacokinetics of obicetrapib; assay type: in vivo, human; settings: by 8 weeks after long-term daily dosing
Source text: Plasma obicetrapib concentrations will be summarized with descriptive statistics based on the PK Population. Exploration of any relationships with obicetrapib exposure will be performed, as appropriate.
The PK Population included all participants in the mITT Population who had sufficient blood samples collected for valid estimation of PK parameters.

apolipoprotein B (ApoB) = test: Phase 2 study of obicetrapib and ezetimibe in mild dyslipidaemia: ApoB; assay type: in vivo, human
Source text: (§1) Study drugs will be administered by the participant orally and once daily on Days 1 through 57. Study drugs should be administered at approximately the same time each morning, with food. On days with visits scheduled, study drugs should be administered with food following all fasted blood samples. If a participant forgets to take study drug on a given day, they should take the next dose as normal and should not take a double dose to make up for the forgotten dose.
(§2) Up to 2 weeks after the Screening Visit, participants will return to the site on Day 1 (Visit 2) to be randomized and begin treatment. Approximately 100 eligible participants (25 participants per treatment group) will be randomized in a 1:1:1:1 ratio to 1 of the following treatment groups: • Combination therapy: 5 mg obicetrapib+10 mg ezetimibe; • Obicetrapib monotherapy: 5 mg obicetrapib+placebo ezetimibe; • Ezetimibe monotherapy: placebo obicetrapib+10 mg ezetimibe; or • Placebo: placebo obicetrapib+placebo ezetimibe.
Similar MMRM models were developed to examine the percent change from Day 1 to Day 57 in LDL-C (for other pairwise treatment group comparisons beside the analysis specified for the primary efficacy endpoint, using the Friedewald formula) or ApoB. In order to maintain the overall Type 1 error rate, the secondary efficacy endpoints were tested sequentially at the 0.05 significance level according to the pre-specified order of hierarchy. This applied to the following analyses: • Percent change from Day 1 to Day 57 in LDL-C for the obicetrapib monotherapy group compared to the placebo group; • Percent change from Day 1 to Day 57 in ApoB for the combination therapy group compared to the placebo group; • Percent change from Day 1 to Day 57 in ApoB for the obicetrapib monotherapy group compared to the placebo group; • Percent change from Day 1 to Day 57 in LDL-C for combination therapy group compared to the ezetimibe monotherapy group; • Percent change from Day 1 to Day 57 in LDL-C for the obicetrapib monotherapy group compared to the ezetimibe monotherapy group; • Percent change from Day 1 to Day 57 in LDL-C, for the ezetimibe monotherapy group compared to the placebo group; and • Percent change from Day 1 to Day 57 in ApoB for the combination therapy group compared to the ezetimibe monotherapy group.

[2] = tested on: low-density lipoprotein cholesterol (LDL-C); test: Phase 2 study of obicetrapib and ezetimibe in mild dyslipidaemia: LDL-C by Friedewald formula; assay type: in vivo, human
Source text: as §1, §2
LDL-C level was collected using the following 2 approaches: • 1. At each scheduled visit, LDL-C level was calculated using the Friedewald formula; and • 2. In addition, at baseline (Day 1) and at the end of the 8-week Treatment Period (Day 57), LDL-C was measured for all participants by preparative ultracentrifugation (PUC). Primary Efficacy Endpoint Primary analysis
The primary efficacy analysis of the percent change from Day 1 to Day 57 in LDL-C was performed using a mixed model for repeated measures (MMRM) approach. The analysis included fixed effects for treatment, visit, and treatment-by-visit interaction, along with a covariate of the baseline value as a continuous covariate. Randomization was stratified by categories of LDL-C value (<3.5 mmol/L [<135 mg/dL] or >3.5 mmol/L [≥135 mg/dL]) only to ensure similar distribution of LDL-C across all treatment groups; however, the MMRM model included the original scale of the LDL-C value as a continuous covariate. The Restricted Maximum Likelihood estimation approach was used with an unstructured covariance matrix. The least squares (LS) means, standard errors, and 2-sided 95% confidence intervals (CIs) for each treatment group, for the pairwise comparisons of the combination therapy, obicetrapib monotherapy, and ezetimibe monotherapy to placebo, and for the pairwise comparisons of combination therapy and obicetrapib monotherapy versus ezetimibe monotherapy are provided. The treatment comparison was performed using a 2-sided test at the α=0.05 level of significance.
(§3) Similar MMRM models were used for the exploratory efficacy endpoints. The proportion of participants at Day 57 that achieved LDL-C<2.6 mmol/L (<100 mg/dL), LDL-C<1.8 mmol/L (<70 mg/dL), and LDL-C<1.3 mmol/L (<50 mg/dL) were examined through Logistic Regression Models for binary variables with covariates of the treatment groups and the baseline variable.
This study was a placebo-controlled, double-blind, randomized Phase 2 study in participants with mild dyslipidemia to evaluate the efficacy, safety, and tolerability of obicetrapib and ezetimibe combination therapy. The primary efficacy endpoint was percent change from Day 1 to Day 57 in LDL-C for the obicetrapib 5 mg+ezetimibe 10 mg group compared to the placebo group.

apolipoprotein E (ApoE) = test: Phase 2 study: ApoE; assay type: in vivo, human; settings: Day 57
Protocol: as §2, §3

LDL-C = settings: cited from earlier work
[3] = tested on: non-high-density lipoprotein cholesterol (non-HDL-C); test: Phase 2 study: non-HDL-C; assay type: in vivo, human; settings: Day 57
Protocol: as §2, §3

[4] = tested on: high-density lipoprotein cholesterol (HDL-C); test: Phase 2 study: HDL-C; assay type: in vivo, human; settings: Day 57
Protocol: as §2, §3

HDL-C = settings: cited from earlier work
[5] = Phase 2 study: safety and tolerability (adverse events); assay type: in vivo, human
Source text: The Safety Population included all participants who received at least 1 dose of any study drug. Treatment classification was based on the actual treatment received. The Safety Population was the primary population used for the safety analyses.
The Safety Population was the primary population for the safety analyses. All safety endpoints are summarized descriptively. No statistical inference was applied to the safety endpoints.
AEs were categorized by primary system organ class (SOC) and preferred term (PT) as coded using the Medical Dictionary for Regulatory Activities (version 23.0) category designations. Summaries of AEs, including the count and percentage of participants who experienced an AE, are provided.
An overview of treatment-emergent adverse events (TEAEs) is provided, including counts and percentages of participants (and event counts).
Listings are presented specifically for TEAEs, treatment-emergent serious adverse events (TESAEs), and TEAEs leading to discontinuation of study drug.

[6] = mITT population, mild dyslipidaemia, oral once daily, Day 57
[7] = mITT population, oral once daily, baseline to Day 57
[8] = previous multiple-dose clinical studies, 5 mg obicetrapib dose, healthy subjects and patients

In the case of `CCOC(=O)N1c2ccc(C(F)(F)F)cc2[C@@H](N(Cc2cc(C(F)(F)F)cc(C(F)(F)F)c2)c2ncc(OCCCC(=O)O)cn2)C[C@H]1C` [Obicetrapib 5 mg], the “CETP activity and concentrations (in words)” value (CETP) is listed as “effectively reduced”, the “Elimination of obicetrapib (in words)” value [1] is listed as “almost complete elimination” and the “Percent change from baseline in ApoB compared to placebo (in words)” value (apolipoprotein B (ApoB); Day 57, compared to placebo) is listed as “significant reductions”. For the same molecule, the “ApoB at Day 57, mean” value (apolipoprotein B (ApoB); [6]) was 78.3 mg/dL, the “ApoB at Day 57, median” value (apolipoprotein B (ApoB); [6]) was 75.0 mg/dL and the “Change from baseline to Day 57 in ApoB, mean” value (apolipoprotein B (ApoB); [7]) was -22.6 mg/dL. For the same molecule, the “Change from baseline to Day 57 in ApoB, median” value (apolipoprotein B (ApoB); [7]) was -24.0 mg/dL, the “Percent change from baseline to Day 57 in ApoB, mean” value (apolipoprotein B (ApoB); [7]) was −22.15% and the “Percent change from baseline to Day 57 in ApoB, median” value (apolipoprotein B (ApoB); [7]) was −23.50%. For the same molecule, the “Number of participants that achieved LDL-C<70 mg/dL by Friedewald formula” value ([2]; Day 57) was 7 participants, the “Number of participants that achieved LDL-C<100 mg/dL by Friedewald formula” value ([2]; Day 57) was 16 participants and the “Percentage of participants that achieved LDL-C<70 mg/dL by Friedewald formula” value ([2]; Day 57) was 25.0%. The “Percentage of participants that achieved LDL-C<100 mg/dL by Friedewald formula” value ([2]; Day 57) was 57.1%, the “LDL-C by Friedewald formula at Day 57, mean” value [2, 6] was 87.0 mg/dL and the “LDL-C by Friedewald formula at Day 57, median” value [2, 6] was 87.0 mg/dL. For the same molecule, the “Change from baseline to Day 57 in LDL-C by Friedewald formula, mean” value [2, 7] was -39.5 mg/dL, the “Change from baseline to Day 57 in LDL-C by Friedewald formula, median” value [2, 7] was -41.0 mg/dL and the “Percent change from baseline to Day 57 in LDL-C by Friedewald formula, mean” value [2, 7] was −31.88%. The “Percent change from baseline to Day 57 in LDL-C by Friedewald formula, median” value [2, 7] was −34.40%, the “Percent change from baseline in ApoE compared to placebo (in words)” value (apolipoprotein E (ApoE)) was “significant increases” and the “Effect on LDL cholesterol concentrations (in words)” value (LDL-C; Phase II trial TULIP, 10 mg and 5 mg obicetrapib as monotherapy) was “able to reduce LDL cholesterol concentrations”. For the same molecule, the “Effect on LDL-C levels (in words)” value (LDL-C; [8]) was “decreased”, the “Percent change from baseline in non-HDL-C compared to placebo (in words)” value [3] was “significant reductions” and the “Percent change from baseline in HDL-C compared to placebo (in words)” value [4] was “significant increases”. For the same molecule, the “Effect on HDL cholesterol concentration (in words)” value (HDL-C; Phase II trial TULIP, mono-therapy and in combination with statins) was “increased considerably”, the “Effect on HDL-C levels (in words)” value (HDL-C; [8]) was “increased” and the “Safety and tolerability (in words)” value ([5]; 8 weeks of treatment, oral once daily) was “generally safe and well tolerated”. For the same molecule, the “Participants who experienced at least 1 TEAE, number” value ([5]; Safety Population) was 4 participants, the “Participants who experienced at least 1 TEAE, percentage” value ([5]; Safety Population) was 14.3% and the “Participants who experienced at least 1 study drug-related TEAE, number” value ([5]; Safety Population) was 1 participants. For the same molecule, the “Participants who experienced at least 1 study drug-related TEAE, percentage” value ([5]; Safety Population) was 3.6%, the “Participants with a TEAE with a maximum severity of moderate, number” value ([5]; Safety Population) was 1 participants and the “Participants with a TEAE with a maximum severity of moderate, percentage” value ([5]; Safety Population) was 3.6%.
